From patent publication US5266562A, “Anti-inflammatory agents” (The United States of America as represented by the …, priority 1987, dated 1993) come the findings set out here.

For data set [1], the system named is phorbol myristate acetate induced inflammation on rabbit skin. Conditions: for Histopathology: inflammatory cells in phorbol injected skin (in words) / Effect on phorbol induced erythema and induration (in words) / Erythema (mm), Phorbol injected / Induration (mm), Phorbol injected: rabbit skin; for Histopathology: inflammatory cells in phorbol injected skin (in words): 20 μM injected after phorbol, FIG. 3; for Erythema (mm), Phorbol injected / Induration (mm), Phorbol injected: phorbol myristate acetate 10 μM, 0.1 ml, test substance 20 μM, mean ± SEM.
Procedure: Animals: Virgin New Zealand rabbits weighting 3-3.5 Kg were used for all experiments. These animals were housed in separate cages and provided with food and water ad libitum. A daily schedule of 12 hours light and 12 hours darkness was maintained throughout the experimental period.
Induction of inflammation and the effect of uteroglobin: The dorsal skin of rabbits was shaved and 1/2 square inch areas demarcated lightly with a felt tip marker pen. […] The demarcated areas were used for identifying the locations where phorbol, carragennin, or other test substances were injected. Using a 25 gauge needle and a tuberculin syringe (1 cc), phorbol myristate acetate solution (10 mM) was injected into all areas, except for two, where no injections were given and two other areas where the solvent of phorbol myristate, dimethyl sulfoxide (DMSO), was injected alone. Various test substances were injected on one side of the vertebral column and the opposite side was used for controls. Thus, in this system a comparison of phorbol induced inflammation with the effects of various test substances could easily be made. These areas were observed daily and the diameter of the erythema and induration for each lesion was measured by the same observer. […] These tissues were used for histopathological analysis.

Data set [2] concerns prostanoid levels (PGE2, PGF2α) in skin lesions. Nature of the data set: Prostanoid levels (radioimmunoassay) in tissues injected with phorbol myristate acetate. The class given is in vivo, rabbit. Conditions: for Effect on tissue prostanoid levels (PGE2, PGF2α) (in words): rabbit skin lesions injected with phorbol; for Prostaglandin levels PGE2 / Prostaglandin levels PGF2 α: rabbit skin lesions, phorbol 10 μM then test substance 20 μM 0.1 ml after 5 minutes, mean of two experiments; for Prostaglandin levels PGF2 α: ND = Nondetectable. The method, then:
These tissues were used for histopathological analysis.
A similar groups of animals were sacrificed 48 hours after the injections were made and the skin lesions were dissected out and homogenized in cold phosphate buffered saline (PBS, pH 7.4). The homogenate was centrifuged at 2500×g for 10 minutes at 4° C. The supernatants were frozen at -70° C. until assayed for prostaglandins.

The mark [3] stands for this setting: equimolar concentrations, concentration not given.

Read-outs that look alike come from different tables or passages of the source.

In the case of `C[C@@H]1C[C@H]2[C@@H]3CCC4=CC(=O)C=C[C@]4(C)[C@@]3(F)[C@@H](O)C[C@]2(C)[C@@]1(O)C(=O)CO` [Dexamethasone], in data set [1], the “Histopathology: inflammatory cells in phorbol injected skin (in words)” value was “reduced the density of these inflammatory cells”; the “Erythema (mm), Phorbol injected” value turned out to be 10.5 ± 1.2 mm; the “Induration (mm), Phorbol injected” value was 8.1 ± 2.0 mm. Moreover, the “Effect on phorbol induced erythema and induration (in words)” value in data set [1] (setting [3]) was “dramatically reduced both erythema as well as induration”. In addition, in data set [2], the “Effect on tissue prostanoid levels (PGE2, PGF2α) (in words)” value was “dramatically reduced these prostanoid levels”; the “Prostaglandin levels PGE2” value came to 106 pg/mg protein; the “Prostaglandin levels PGF2 α” value amounted to 88 pg/mg protein.
Take `CCCCC/C=C\C/C=C\C/C=C\C/C=C\CCCC(=O)O` [arachidonic acid]: the “Erythema and induration induced by the substance itself (in words)” value in data set [1] (rabbit, in vivo) was “induced some erythema and induration”.
For the molecule Myoglobin, the “Histopathology: inflammatory cells in phorbol injected skin (in words)” value in data set [1] is “did not have any inhibitory effect”. The “Effect on phorbol induced erythema and induration (in words)” value in data set [1] (setting [3]) is given as “did not have any suppressive effect”.

B1: Uteroglobin: protein purified from uterine washings of rabbits primed with chorionic gonadotropin; also known as blastokinin (protein, UniProt P02779 22-91, looked up)
Uteroglobin: GICPRFAHVIENLLLGTPSSYETSLKEFEPDDTMKDAGMQMKKVLDSLPQTTRENIMKLTEKIVKSPLCM
On to B1, for which the “Effect on phorbol induced erythema and induration (in words)” value in data set [1] (10 μM, FIG. 4 dose response) is given as “Significant inhibitory effect”. In addition, the “Effect on phorbol induced erythema and induration (in words)” value in data set [1] (20 μM, FIG. 4 dose response) is on record as “most dramatic effect”. In data set [1] (setting [3]), the “Effect on phorbol induced erythema and induration (in words)” value is listed as “dramatically reduced both erythema as well as induration”. In data set [1], the “Erythema (mm), Phorbol injected” value turned out to be 6.4 ± 0.5 mm and the “Induration (mm), Phorbol injected” value came to 5.1 ± 0.8 mm. Further, in data set [2], the “Effect on tissue prostanoid levels (PGE2, PGF2α) (in words)” value was “dramatically reduced these prostanoid levels”; the “Prostaglandin levels PGE2” value was 94 pg/mg protein; the “Prostaglandin levels PGF2 α” value turned out to be 58 pg/mg protein.
